# Data: patent US20120015961A1, “ISOTHIOUREA DERIVATIVES OR ISOUREA DERIVATIVES HAVING BACE1 INHIBITORY ACTIVITY” (SHIONOGI & CO., LTD., priority 2009, published 2012)
# Experiments:
# [1] = system: Salmonella typhimurium (TA98 and TA100 strain); assay: FAT test; format: cell-based; parameters: key: (−) means that mutagenicity is negative; (+) means positive; settings: TA98 and TA100, with and without metabolic activation system
# Description: Each 20 μL of freeze-stored Salmonella typhimurium (TA98 and TA100 strain) was inoculated in 10 mL of liquid nutrient medium (2.5% Oxoid nutrient broth No. 2), and the cultures were incubated at 37° C. under shaking for 10 hours. 9 mL of TA98 culture was centrifuged (2000×g, 10 minutes) to remove medium, and the bacteria was suspended in 9 mL of Micro F buffer (K2HPO4: 3.5 g/L, KH2PO4: 1 g/L, (NH4)2SO4: 1 g/L, trisodium citrate dehydrate: 0.25 g/L, MgSO4.7H2O: 0.1 g/L), and the suspension was added to 110 mL of Exposure medium (Micro F buffer containing Biotin: 8 μg/mL, histidine: 0.2 μg/mL, glucose: 8 mg/mL). 3.16 mL of TA100 culture was added to 120 mL of Exposure medium to prepare the test bacterial solution. […] The number of the yellow wells among the 48 total wells per dose was counted, and evaluated the mutagenicity by comparing with the negative control group. […]
# [2] = target: T1, Recombinant human BACE1 (Homo sapiens, UniProt P56817); assay: Assay of BACE1 inhibiting activity; format: biochemical; settings: 50% inhibitory concentration against enzymatic activity, pH 5.0, 30° C., 3 hours
# T1 construct: purchased R&D Systems
# T1 sequence (P56817 46-501): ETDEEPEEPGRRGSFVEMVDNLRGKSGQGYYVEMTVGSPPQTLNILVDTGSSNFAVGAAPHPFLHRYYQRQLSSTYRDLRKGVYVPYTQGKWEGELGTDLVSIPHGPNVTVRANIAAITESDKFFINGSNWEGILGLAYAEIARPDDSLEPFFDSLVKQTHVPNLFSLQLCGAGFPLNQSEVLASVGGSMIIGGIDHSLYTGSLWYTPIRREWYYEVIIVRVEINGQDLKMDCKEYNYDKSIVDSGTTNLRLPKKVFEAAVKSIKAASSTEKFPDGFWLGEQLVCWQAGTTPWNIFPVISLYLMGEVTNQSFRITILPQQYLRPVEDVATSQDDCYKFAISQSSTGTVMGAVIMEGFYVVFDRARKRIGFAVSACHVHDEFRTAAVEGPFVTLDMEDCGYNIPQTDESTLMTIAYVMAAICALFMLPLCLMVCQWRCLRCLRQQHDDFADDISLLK
# Summary of the method: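 Recombinant human BACE1 (7.4 nM) incubated with 18 nM biotinylated Eu-cryptate peptide substrate in pH 5.0 sodium acetate, 3 h at 30 °C. Streptavidin-XL665 added, 1 h; TR-FRET 665/620 nm ratio gives activity, from which IC50 is calculated.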
# [3] = system: Neuroblastoma SH-SY5Y cells (SH/APPwt) with human wild-type β-APP excessively expressed; assay: Measurement of β-amyloid (Aβ) production inhibitory effect in cell; format: cell-based; settings: Homo sapiens, SH-SY5Y, 24 h, amount needed to inhibit Aβ production by 50%, 24 hours incubation, Amyloid β1-40 HTRF
# Summary of the method: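 SH-SY5Y cells overexpressing human wild-type β-APP exposed to compound for 24 h at 37 °C in 1% final DMSO. Secreted Aβ1-40 in supernatant measured by HTRF (overnight at 4 °C; 665/620 nm ratio). IC50 derived from at least six concentrations.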
structure (smiles),measurement,setting,value
CO/C(N)=N\C1(c2cccc(NC(=O)c3ccc(C#N)cn3)c2)CC1 [Compound 44],mutagenicity,[1],(−)
same,IC50,[2],≤ 1000 nM
same,IC50,[3],≤ 1000 nM
